This assay addresses bovine cardiac myofibrils (full-length cardiac myosin ATPase in the native sarcomere) (Bos taurus (Bovine), UniProt Q9BE39). The assay can be described thus: Skinned bovine cardiac myofibril ATPase assay (PK/LDH-coupled). The note with it: Ca2+ activating to 75% of maximal rate; for CDMF75 IC15: concentration giving 15% inhibition; for IC50: read-out: CDMF75 IC50. The assay is classed as biochemical. The procedure, abridged:
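Inhibition of steady-state ATPase read at 340 nm through a PK/LDH-coupled NADH system (0.5 mM NADH, 1.5 mM PEP). Detergent-skinned bovine cardiac myofibrils, 1 mg/mL, were tested at pH 6.8 in PIPES/MgCl2 with 50 μM ATP and calcium adjusted to give pCa50 or pCa75 activation.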

Bounds are passed on as bounds.

Sequence of bovine cardiac myofibrils (full-length cardiac myosin ATPase in the native sarcomere) (Q9BE39 whole entry): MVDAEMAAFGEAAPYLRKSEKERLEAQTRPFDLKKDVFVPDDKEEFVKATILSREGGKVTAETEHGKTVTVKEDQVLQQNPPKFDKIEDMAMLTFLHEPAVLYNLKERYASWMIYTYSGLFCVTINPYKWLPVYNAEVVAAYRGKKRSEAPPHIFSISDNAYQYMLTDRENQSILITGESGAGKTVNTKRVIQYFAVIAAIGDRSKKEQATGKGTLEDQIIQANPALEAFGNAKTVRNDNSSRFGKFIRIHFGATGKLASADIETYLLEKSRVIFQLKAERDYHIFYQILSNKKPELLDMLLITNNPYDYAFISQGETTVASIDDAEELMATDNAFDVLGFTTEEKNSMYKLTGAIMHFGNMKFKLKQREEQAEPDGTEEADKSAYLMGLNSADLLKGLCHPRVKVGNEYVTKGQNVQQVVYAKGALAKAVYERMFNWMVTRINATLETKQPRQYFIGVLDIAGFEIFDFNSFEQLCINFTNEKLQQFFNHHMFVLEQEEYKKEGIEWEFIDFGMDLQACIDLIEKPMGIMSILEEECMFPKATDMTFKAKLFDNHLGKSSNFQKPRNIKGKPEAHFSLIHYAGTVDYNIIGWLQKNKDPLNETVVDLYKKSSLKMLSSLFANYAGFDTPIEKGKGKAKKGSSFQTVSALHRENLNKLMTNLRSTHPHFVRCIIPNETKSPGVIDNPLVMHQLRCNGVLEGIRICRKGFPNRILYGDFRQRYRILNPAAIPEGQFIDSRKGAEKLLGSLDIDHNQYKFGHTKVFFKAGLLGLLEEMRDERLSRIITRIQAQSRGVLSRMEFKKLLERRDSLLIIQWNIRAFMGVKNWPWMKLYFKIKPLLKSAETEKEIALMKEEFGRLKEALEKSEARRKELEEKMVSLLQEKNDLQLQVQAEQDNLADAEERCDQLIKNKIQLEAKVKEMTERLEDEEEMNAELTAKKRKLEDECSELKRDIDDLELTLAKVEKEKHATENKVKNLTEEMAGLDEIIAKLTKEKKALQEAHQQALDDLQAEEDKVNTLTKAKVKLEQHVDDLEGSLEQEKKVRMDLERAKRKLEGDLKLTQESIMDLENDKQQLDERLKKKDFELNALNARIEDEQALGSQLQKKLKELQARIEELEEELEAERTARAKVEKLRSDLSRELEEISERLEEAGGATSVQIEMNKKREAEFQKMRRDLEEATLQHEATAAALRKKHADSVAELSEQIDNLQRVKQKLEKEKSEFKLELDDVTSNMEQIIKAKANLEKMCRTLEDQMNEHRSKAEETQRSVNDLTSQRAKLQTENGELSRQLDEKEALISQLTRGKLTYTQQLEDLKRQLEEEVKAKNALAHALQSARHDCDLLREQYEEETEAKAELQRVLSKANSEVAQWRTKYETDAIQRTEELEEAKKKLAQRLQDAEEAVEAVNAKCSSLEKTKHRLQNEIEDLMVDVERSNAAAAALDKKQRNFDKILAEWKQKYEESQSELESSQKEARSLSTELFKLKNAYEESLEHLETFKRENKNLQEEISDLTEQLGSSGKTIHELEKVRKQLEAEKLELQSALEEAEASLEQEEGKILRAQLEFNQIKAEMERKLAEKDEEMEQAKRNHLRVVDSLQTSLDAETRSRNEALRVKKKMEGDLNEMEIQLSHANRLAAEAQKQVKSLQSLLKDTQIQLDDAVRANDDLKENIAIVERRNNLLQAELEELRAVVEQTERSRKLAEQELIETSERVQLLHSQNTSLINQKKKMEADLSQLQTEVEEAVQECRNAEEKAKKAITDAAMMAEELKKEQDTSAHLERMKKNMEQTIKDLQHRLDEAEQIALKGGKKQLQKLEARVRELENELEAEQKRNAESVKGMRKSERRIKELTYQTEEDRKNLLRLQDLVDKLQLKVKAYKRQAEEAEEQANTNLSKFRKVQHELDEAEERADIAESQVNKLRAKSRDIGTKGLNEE
Sequence of bovine cardiac myofibrils (full-length cardiac myosin ATPase in the native sarcomere) (P85100 whole entry partner): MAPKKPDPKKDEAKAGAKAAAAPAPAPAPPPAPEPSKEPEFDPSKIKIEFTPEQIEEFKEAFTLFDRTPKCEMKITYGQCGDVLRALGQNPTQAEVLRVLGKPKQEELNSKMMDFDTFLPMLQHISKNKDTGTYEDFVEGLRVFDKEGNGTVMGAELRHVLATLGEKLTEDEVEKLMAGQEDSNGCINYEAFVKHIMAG
Sequence of bovine cardiac myofibrils (full-length cardiac myosin ATPase in the native sarcomere) (Q3SZE5 whole entry partner): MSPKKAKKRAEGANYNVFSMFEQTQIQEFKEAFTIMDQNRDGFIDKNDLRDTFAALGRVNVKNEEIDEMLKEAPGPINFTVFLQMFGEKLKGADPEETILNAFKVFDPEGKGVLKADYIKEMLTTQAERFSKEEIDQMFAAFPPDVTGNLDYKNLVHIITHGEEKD

For orientation: IC50 means the concentration at which inhibition is half-maximal. As to `Cc1ncc(C(=O)N[C@@H]2COc3cc(-c4noc(C5(C)CC5)n4)ccc32)o1` [Compound 466, (S)-2-methyl-N-(6-(5-(1-methylcyclopropyl)-1,2,4-oxadiazol-3-yl)-2,3-dihydrobenzofuran-3-yl)oxazole-5-carboxamide], the “CDMF75 IC15” value worked out at 800 nM and the half-inhibitory concentration (IC50) turned out to be 2900 nM.

For the molecule `Cc1nc(C(=O)NC2CCc3cc(-c4noc(C(F)F)n4)ccc32)c(C)o1` (stereo not shown) [Compound 22, N-(5-(5-(difluoromethyl)-1,2,4-oxadiazol-3-yl)-2,3-dihydro-1H-inden-1-yl)-2,5-dimethyloxazole-4-carboxamide], the “CDMF75 IC15” value came out at 5500 nM and the half-maximal inhibitory concentration (IC50) stood at 28200 nM.

Take `CCc1nc(-c2ccc3c(c2)CC[C@H]3NC(=O)c2nnn(C)c2C)no1` [Compound 621, (R)-N-(5-(5-ethyl-1,2,4-oxadiazol-3-yl)-2,3-dihydro-1H-inden-1-yl)-1,5-dimethyl-1H-1,2,3-triazole-4-carboxamide]: the “CDMF75 IC15” value turned out to be 1600 nM and the concentration for half-maximal inhibition (IC50) came to 6100 nM.

For `CCc1nc(-c2ccc3c(c2)CC[C@H]3NC(=O)c2cccc(C=O)c2)no1` [Compound 658, (R)-N-(5-(5-ethyl-1,2,4-oxadiazol-3-yl)-2,3-dihydro-1H-inden-1-yl)-3-formylbenzamide], the “CDMF75 IC15” value amounted to 300 nM and the IC50 came to 900 nM.

As to `Cc1cc(C(=O)N[C@@H]2CCc3cc(-c4nc(C(F)F)no4)ccc32)n(C)n1` [Compound 213, (R)-N-(5-(3-(difluoromethyl)-1,2,4-oxadiazol-5-yl)-2,3-dihydro-1H-inden-1-yl)-1,3-dimethyl-1H-pyrazole-5-carboxamide], the “CDMF75 IC15” value was determined as 1200 nM and the IC50 was determined as 4700 nM.

On to `Cc1nc(C(=O)NC2CCc3cc(-c4noc(C(F)F)n4)ccc32)no1` (stereo not shown) [Compound 84, N-(5-(5-(difluoromethyl)-1,2,4-oxadiazol-3-yl)-2,3-dihydro-1H-inden-1-yl)-5-methyl-1,2,4-oxadiazole-3-carboxamide], for which the “CDMF75 IC15” value was found to be 2700 nM and the IC50 turned out to be 10800 nM.

As for `O=C(N[C@@H]1CCc2cc(-c3noc(C(F)F)n3)ccc21)c1cc(CO)ccn1` [Compound 667, (R)-N-(5-(5-(difluoromethyl)-1,2,4-oxadiazol-3-yl)-2,3-dihydro-1H-inden-1-yl)-4-(hydroxymethyl)picolinamide], the “CDMF75 IC15” value was determined as 900 nM and the IC50 was 3700 nM.

Regarding `CCc1nc(-c2ccc3c(c2)CC[C@H]3NC(=O)c2cccc(CCO)c2)no1` [Compound 659, (R)-N-(5-(5-ethyl-1,2,4-oxadiazol-3-yl)-2,3-dihydro-1H-inden-1-yl)-3-(2-hydroxyethyl)benzamide], the “CDMF75 IC15” value is 500 nM and the half-inhibitory concentration (IC50) was found to be 1700 nM.

On to `Cn1nccc1C(=O)N[C@@H]1CCc2cc(-c3noc(C4CC4)n3)ccc21` [Compound 241, (R)-N-(5-(5-cyclopropyl-1,2,4-oxadiazol-3-yl)-2,3-dihydro-1H-inden-1-yl)-1-methyl-1H-pyrazole-5-carboxamide], for which the “CDMF75 IC15” value was found to be 200 nM and the IC50 was 800 nM.

With `CCc1nc(-c2ccc3c(c2)CC[C@H]3NC(=O)c2cnn(C(C)CO)c2)no1` (stereo partly drawn) [Compound 533, N-((R)-5-(5-ethyl-1,2,4-oxadiazol-3-yl)-2,3-dihydro-1H-inden-1-yl)-1-(1-hydroxypropan-2-yl)-1H-pyrazole-4-carboxamide], the “CDMF75 IC15” value came out at 1500 nM and the IC50 amounted to 8700 nM.

Take `Cc1ccnc(-c2ccc3c(c2)CC[C@H]3NC(=O)c2ccnn2C)n1` [Compound 378, (R)-1-methyl-N-(5-(4-methylpyrimidin-2-yl)-2,3-dihydro-1H-inden-1-yl)-1H-pyrazole-5-carboxamide]: the “CDMF75 IC15” value stood at 2100 nM and the half-maximal inhibitory concentration (IC50) was 12200 nM.

Regarding `Cc1ncc(C(=O)N[C@@H]2COc3cc(-c4noc(C5CC5)n4)ccc32)o1` [Compound 463, (S)-N-(6-(5-cyclopropyl-1,2,4-oxadiazol-3-yl)-2,3-dihydrobenzofuran-3-yl)-2-methyloxazole-5-carboxamide], the “CDMF75 IC15” value was 700 nM and the IC50 was determined as 2400 nM.

Regarding `Cn1cncc1C(=O)NC1CCc2cc(-c3noc(C(F)F)n3)ccc21` (stereo not shown) [Compound 6, N-(5-(5-(difluoromethyl)-1,2,4-oxadiazol-3-yl)-2,3-dihydro-1H-inden-1-yl)-1-methyl-1H-imidazole-5-carboxamide], the “CDMF75 IC15” value is 700 nM and the half-maximal inhibitory concentration (IC50) was found to be 3400 nM.

On to `CC(C)(C)OC(=O)NC1CCc2cc(-c3noc(C(F)F)n3)ccc21` (stereo not shown) [Compound 16, tert-butyl (5-(5-(difluoromethyl)-1,2,4-oxadiazol-3-yl)-2,3-dihydro-1H-inden-1-yl)carbamate], for which the “CDMF75 IC15” value came to 8900 nM and the IC50 is > 39200 nM.

As for `CCc1nc(-c2ccc3c(c2)CC[C@H]3NC(=O)c2ncc(C)s2)no1` [Compound 640, (R)-N-(5-(5-ethyl-1,2,4-oxadiazol-3-yl)-2,3-dihydro-1H-inden-1-yl)-5-methylthiazole-2-carboxamide], the “CDMF75 IC15” value is 500 nM and the IC50 amounted to 2100 nM.

As for `COCc1nc(-c2ccc3c(c2)CC[C@H]3NC(=O)c2cnc(C)s2)no1` [Compound 696, (R)-N-(5-(5-(methoxymethyl)-1,2,4-oxadiazol-3-yl)-2,3-dihydro-1H-inden-1-yl)-2-methylthiazole-5-carboxamide], the “CDMF75 IC15” value was 1100 nM and the IC50 came out at 4200 nM.

Consider `CCc1cc(-c2ccc3c(c2)CC[C@H]3NC(=O)c2ocnc2C)no1` [Compound 417, (R)-N-(5-(5-ethylisoxazol-3-yl)-2,3-dihydro-1H-inden-1-yl)-4-methyloxazole-5-carboxamide], for which the “CDMF75 IC15” value was 200 nM and the IC50 was 600 nM.

Turning to `Cn1ncc(C(=O)NC2CCc3cc(-c4noc(C(F)F)n4)ccc32)n1` (stereo not shown) [Compound 83, N-(5-(5-(difluoromethyl)-1,2,4-oxadiazol-3-yl)-2,3-dihydro-1H-inden-1-yl)-2-methyl-2H-1,2,3-triazole-4-carboxamide], the “CDMF75 IC15” value was 1900 nM and the 50% inhibitory concentration (IC50) was 7800 nM.

As to `[2H]C([2H])([2H])c1nc(-c2ccc3c(c2)CC[C@H]3NC(=O)c2cnn(CCO)c2)no1` [Compound 519, (R)-1-(2-hydroxyethyl)-N-(5-(5-(methyl-d3)-1,2,4-oxadiazol-3-yl)-2,3-dihydro-1H-inden-1-yl)-1H-pyrazole-4-carboxamide], the “CDMF75 IC15” value stood at 1900 nM and the half-maximal inhibitory concentration (IC50) was 8700 nM.

On to `COC(=O)N[C@@H]1CCc2cc(-c3noc(C4CC4)n3)ccc21` [Compound 305, methyl (R)-(5-(5-cyclopropyl-1,2,4-oxadiazol-3-yl)-2,3-dihydro-1H-inden-1-yl)carbamate], for which the “CDMF75 IC15” value amounted to 300 nM and the IC50 amounted to 1200 nM.

Take `CCc1nc(-c2ccc3c(c2)CC[C@H]3NC(=O)OC2COC2)no1` [Compound 357, oxetan-3-yl (R)-(5-(5-ethyl-1,2,4-oxadiazol-3-yl)-2,3-dihydro-1H-inden-1-yl)carbamate]: the “CDMF75 IC15” value was 500 nM and the IC50 came out at 1700 nM.

As for `Cc1cc(C(=O)N[C@@H]2CCc3cc(-c4cc(C(F)F)on4)ccc32)ccn1` [Compound 169, (R)-N-(5-(5-(difluoromethyl)isoxazol-3-yl)-2,3-dihydro-1H-inden-1-yl)-2-methylisonicotinamide], the “CDMF75 IC15” value is 500 nM and the IC50 worked out at 1800 nM.

For `COCc1nc(-c2ccc3c(c2)CC[C@H]3NC(=O)c2oncc2C)no1` [Compound 114, (R)-N-(5-(5-(methoxymethyl)-1,2,4-oxadiazol-3-yl)-2,3-dihydro-1H-inden-1-yl)-4-methylisoxazole-5-carboxamide], the “CDMF75 IC15” value was found to be 500 nM and the IC50 was found to be 2000 nM.

`CCc1nc(-c2ccc3c(c2)CC[C@H]3NC(=O)OCC2CN(C(=O)OC)C2)no1` [Compound 361, methyl (R)-3-((((5-(5-ethyl-1,2,4-oxadiazol-3-yl)-2,3-dihydro-1H-inden-1-yl)carbamoyl)oxy)methyl)azetidine-1-carboxylate]: the “CDMF75 IC15” value worked out at 23700 nM and the IC50 is > 39200 nM.

For `CCn1nccc1C(=O)NC1CCc2cc(-c3noc(C(F)F)n3)ccc21` (stereo not shown) [Compound 29, N-(5-(5-(difluoromethyl)-1,2,4-oxadiazol-3-yl)-2,3-dihydro-1H-inden-1-yl)-1-ethyl-1H-pyrazole-5-carboxamide], the “CDMF75 IC15” value is 1200 nM and the concentration for half-maximal inhibition (IC50) worked out at 5300 nM.

Turning to `CCc1nc(-c2ccc3c(c2)CC[C@H]3NC(=O)c2conc2C)no1` [Compound 566, (R)-N-(5-(5-ethyl-1,2,4-oxadiazol-3-yl)-2,3-dihydro-1H-inden-1-yl)-3-methylisoxazole-4-carboxamide], the “CDMF75 IC15” value was 200 nM and the half-inhibitory concentration (IC50) was 800 nM.

In the case of `Cn1nnc(C(=O)NC2CCc3cc(-c4noc(C(F)F)n4)ccc32)n1` (stereo not shown) [Compound 81, N-(5-(5-(difluoromethyl)-1,2,4-oxadiazol-3-yl)-2,3-dihydro-1H-inden-1-yl)-2-methyl-2H-tetrazole-5-carboxamide], the “CDMF75 IC15” value is 1100 nM and the IC50 was 3700 nM.

As for `CC(=O)OCc1nc(-c2ccc3c(c2)CCC3NC(=O)c2cn(C)nc2C)no1` (stereo not shown) [Compound 74, (3-(1-(1,3-dimethyl-1H-pyrazole-4-carboxamido)-2,3-dihydro-1H-inden-5-yl)-1,2,4-oxadiazol-5-yl)methyl acetate], the “CDMF75 IC15” value is 22300 nM and the IC50 was > 39200 nM.

In the case of `CCc1nc(-c2ccc3c(c2)OC[C@H]3NC(=O)N(C)CCO)no1` [Compound 746, (S)-3-(6-(5-ethyl-1,2,4-oxadiazol-3-yl)-2,3-dihydrobenzofuran-3-yl)-1-(2-hydroxyethyl)-1-methylurea], the “CDMF75 IC15” value came to 4600 nM and the IC50 was 21300 nM.

The values above are taken from patent US12065436B2, “Cardiac sarcomere inhibitors” (Cytokinetics, Inc., priority 2018, dated 2024).
